Results as given in patent publication US6423689B1, “Peptidyl calcium channel blockers” (Warner-Lambert Company, priority 1997, dated 2002).

Tests used:
[1] = biological target: T1, N-type Ca2+ channels in superior cervical ganglion (SCG) neurons (Rattus norvegicus, UniProt Q02294); assay: Whole-cell voltage clamp, N-type Ca2+ current in SCG neurons; assay type: cell-based; settings: for IC50: read-out: Inhibition of N-type Ca2+ Current IC50
T1 construct: from tissue
Protocol: (§1) Electrophysiological techniques were used to measure the effects of experimental compounds on voltage-gated Ca^2+, Na^+ and K^+ channels. […] Sodium and potassium channel currents were measured from acutely dissociated SCG neurons.
(§2) Dissociation of the neurons from the ganglia was accomplished using a 30 to 45 minute treatment in 0.25% trypsin, similar to methods outlined in Higgins, et al. [see Higgins D., et al. “Tissue culture of mammalian autonomic neurons.” In Banker G. and Goslin K. (Eds), Culturing Nerve Cells, Cambridge, Mass., MIT Press (1991)].
(§3) Ca^2+, Na^+ and K^+ channel currents in SCG neurons were measured using conventional single electrode whole-cell voltage-clamp techniques, outlined in Hamill, et al., (see Hamill O.P., et al. “Improved patch-clamp techniques for high resolution current recordings from cells and cell-free membrane patches”. Pflugers Arch. 1981;391:85-100) For Ca^2+ channel experiments, the external bathing solution contained tetraethylammonium chloride (100 mM), choline chloride (52 mM), NaCl (15 mM), HEPES (10 mM), glucose (5.6 mM), CaCl2 (2 mM), and MgCl2 (0.8 mM) pH 7.35 with KOH; with the internal pipette solution containing cesium methane sulfonate (140 mM), EGTA (10 mM), and HEPES (10 mM), supplemented with 5 mM Mg^2+ -ATP on the day of the experiment, pH 7.4 with CsOH. For Na^+ and K^+ channel experiments, the external bathing solution contained NaCl (150 mM), KCl (5 mM), MgCl2 (1.1 mM), CaCl2 (2.6 mM), Na-HEPES (10 mM), and glucose (10 mM), pH 7.4; with the internal pipette solution containing KCl (80 mM), K-gluconate (50 mM), HEPES (10 mM), and EGTA (10 mM), pH 7.4 with KOH. Experimental compounds were diluted into the external solution and applied to the soma of cells by local perfusion from large diameter (20-50 μm) glass micropipettes or from a U-tube applicator.
After obtaining a whole-cell recording, Ca^2+ channels were elicited by stepping to test potentials between −40 and +20 mV for 120 msec from the holding potential of −90 mV to determine if the amplitude of the current and clamp control were adequate for evaluation of drug effects. Ca^2+ channel currents were evoked by stepping from a holding potentials between −65 mV and −−55 mV to a test potential of +20 mV for 150 msec every 40 seconds. The amplitude of the Ca^2+ channel currents were compared before and during drug application and drug effects expressed as percent inhibition of the amplitude of control currents.

[2] = biological target: T2, N-type Ca2+ channels in IMR-32 cells (Homo sapiens, UniProt Q00975); assay: Inhibition of N-type calcium flux in IMR-32 cells (Indo-1 fluorescence, nitrendipine present); assay type: cell-based; settings: for IC50: IMR-32 cells, 5 μM nitrendipine, K+ depolarization; for inhibition at 1 µM / inhibition at 10 µM: IMR-32
T2 construct: host or cells: IMR-32 cells, differentiated with dibutyryl cAMP and bromodeoxyuridine
T2 sequence (Q00975 whole entry): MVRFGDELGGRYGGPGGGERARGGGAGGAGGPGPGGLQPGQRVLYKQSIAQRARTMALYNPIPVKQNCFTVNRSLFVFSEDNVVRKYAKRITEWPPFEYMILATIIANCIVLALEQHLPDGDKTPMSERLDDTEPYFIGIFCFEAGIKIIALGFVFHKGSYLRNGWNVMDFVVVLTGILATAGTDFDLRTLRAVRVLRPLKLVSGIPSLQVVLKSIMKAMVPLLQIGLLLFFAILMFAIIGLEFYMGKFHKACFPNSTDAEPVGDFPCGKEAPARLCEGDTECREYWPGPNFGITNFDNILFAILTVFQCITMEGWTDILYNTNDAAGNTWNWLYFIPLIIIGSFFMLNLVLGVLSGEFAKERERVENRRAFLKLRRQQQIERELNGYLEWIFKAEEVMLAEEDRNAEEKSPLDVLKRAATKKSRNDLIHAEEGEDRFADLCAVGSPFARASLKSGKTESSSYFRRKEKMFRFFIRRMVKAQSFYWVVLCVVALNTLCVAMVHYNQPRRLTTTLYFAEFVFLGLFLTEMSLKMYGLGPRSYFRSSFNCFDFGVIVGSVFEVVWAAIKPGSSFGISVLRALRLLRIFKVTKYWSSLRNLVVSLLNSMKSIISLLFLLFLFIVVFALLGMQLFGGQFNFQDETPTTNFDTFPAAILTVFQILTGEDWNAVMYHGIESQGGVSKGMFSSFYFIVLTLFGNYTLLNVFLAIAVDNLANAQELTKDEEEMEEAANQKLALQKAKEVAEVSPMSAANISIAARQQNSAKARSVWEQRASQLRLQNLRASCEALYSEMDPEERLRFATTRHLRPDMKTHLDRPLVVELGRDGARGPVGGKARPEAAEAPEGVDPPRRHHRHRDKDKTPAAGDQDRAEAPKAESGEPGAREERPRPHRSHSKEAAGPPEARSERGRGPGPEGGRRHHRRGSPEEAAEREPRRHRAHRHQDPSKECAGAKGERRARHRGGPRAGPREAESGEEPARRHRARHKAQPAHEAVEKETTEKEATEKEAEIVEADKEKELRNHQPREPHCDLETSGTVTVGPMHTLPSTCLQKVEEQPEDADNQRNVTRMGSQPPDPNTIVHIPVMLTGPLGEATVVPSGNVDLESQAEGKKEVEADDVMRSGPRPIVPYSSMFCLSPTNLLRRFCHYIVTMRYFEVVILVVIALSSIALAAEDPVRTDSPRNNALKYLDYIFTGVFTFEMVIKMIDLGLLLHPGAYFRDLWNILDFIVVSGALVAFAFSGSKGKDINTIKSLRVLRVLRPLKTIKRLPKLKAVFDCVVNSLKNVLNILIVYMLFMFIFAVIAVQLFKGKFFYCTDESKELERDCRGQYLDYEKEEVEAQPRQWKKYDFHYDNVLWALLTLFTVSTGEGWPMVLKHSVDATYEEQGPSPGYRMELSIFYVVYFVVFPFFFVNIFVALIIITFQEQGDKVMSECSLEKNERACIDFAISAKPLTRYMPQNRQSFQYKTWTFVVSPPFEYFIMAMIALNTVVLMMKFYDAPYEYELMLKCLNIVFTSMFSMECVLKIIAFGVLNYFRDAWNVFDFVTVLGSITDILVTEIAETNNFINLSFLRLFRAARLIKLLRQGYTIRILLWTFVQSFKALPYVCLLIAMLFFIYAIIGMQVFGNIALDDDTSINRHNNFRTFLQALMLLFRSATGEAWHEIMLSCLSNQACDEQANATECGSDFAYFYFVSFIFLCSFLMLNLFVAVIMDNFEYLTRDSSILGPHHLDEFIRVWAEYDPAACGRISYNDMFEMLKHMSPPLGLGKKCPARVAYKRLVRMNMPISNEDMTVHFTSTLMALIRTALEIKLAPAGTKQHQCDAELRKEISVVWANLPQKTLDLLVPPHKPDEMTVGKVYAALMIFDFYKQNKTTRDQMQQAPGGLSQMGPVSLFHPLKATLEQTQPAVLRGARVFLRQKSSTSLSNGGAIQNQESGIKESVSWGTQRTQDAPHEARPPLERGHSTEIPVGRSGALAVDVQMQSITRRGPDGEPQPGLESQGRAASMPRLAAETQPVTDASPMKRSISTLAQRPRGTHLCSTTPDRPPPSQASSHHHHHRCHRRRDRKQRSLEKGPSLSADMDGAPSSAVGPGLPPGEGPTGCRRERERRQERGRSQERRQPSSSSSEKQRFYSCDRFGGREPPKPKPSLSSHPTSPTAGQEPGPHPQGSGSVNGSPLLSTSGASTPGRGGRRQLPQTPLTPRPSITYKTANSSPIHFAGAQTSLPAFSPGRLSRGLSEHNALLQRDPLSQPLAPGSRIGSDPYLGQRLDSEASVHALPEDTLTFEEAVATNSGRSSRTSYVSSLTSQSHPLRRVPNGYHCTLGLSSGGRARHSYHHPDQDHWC
T2 sequence (P54289 25-956 partner limits assumed): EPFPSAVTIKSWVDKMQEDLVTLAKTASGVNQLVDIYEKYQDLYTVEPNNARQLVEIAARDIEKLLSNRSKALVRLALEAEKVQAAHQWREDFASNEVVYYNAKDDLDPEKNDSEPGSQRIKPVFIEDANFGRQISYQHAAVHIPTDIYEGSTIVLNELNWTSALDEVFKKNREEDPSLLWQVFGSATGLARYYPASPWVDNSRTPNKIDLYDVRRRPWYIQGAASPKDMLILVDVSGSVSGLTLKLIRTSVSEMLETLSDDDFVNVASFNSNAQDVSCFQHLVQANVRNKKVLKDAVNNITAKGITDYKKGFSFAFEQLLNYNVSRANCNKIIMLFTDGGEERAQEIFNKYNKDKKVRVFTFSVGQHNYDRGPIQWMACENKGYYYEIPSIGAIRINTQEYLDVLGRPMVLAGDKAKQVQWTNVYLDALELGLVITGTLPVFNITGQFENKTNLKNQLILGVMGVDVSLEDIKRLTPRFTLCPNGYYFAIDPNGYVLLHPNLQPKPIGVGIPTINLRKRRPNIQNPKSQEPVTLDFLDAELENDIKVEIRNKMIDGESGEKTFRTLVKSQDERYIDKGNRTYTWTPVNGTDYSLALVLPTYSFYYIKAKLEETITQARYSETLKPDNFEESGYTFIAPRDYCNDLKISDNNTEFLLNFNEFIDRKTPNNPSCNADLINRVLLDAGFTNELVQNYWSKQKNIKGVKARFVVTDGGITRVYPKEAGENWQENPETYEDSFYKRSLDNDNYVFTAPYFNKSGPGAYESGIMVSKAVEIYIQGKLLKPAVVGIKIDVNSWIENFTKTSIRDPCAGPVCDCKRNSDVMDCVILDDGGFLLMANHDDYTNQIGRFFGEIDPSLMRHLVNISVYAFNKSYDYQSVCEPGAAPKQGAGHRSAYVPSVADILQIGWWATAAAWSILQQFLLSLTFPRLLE
T2 sequence (P54289 957-1103 partner limits assumed): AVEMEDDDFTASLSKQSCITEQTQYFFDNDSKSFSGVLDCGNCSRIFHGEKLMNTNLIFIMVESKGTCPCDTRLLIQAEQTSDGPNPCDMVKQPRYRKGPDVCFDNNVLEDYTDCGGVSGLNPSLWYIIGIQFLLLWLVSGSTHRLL
T2 sequence (P54284 whole entry partner): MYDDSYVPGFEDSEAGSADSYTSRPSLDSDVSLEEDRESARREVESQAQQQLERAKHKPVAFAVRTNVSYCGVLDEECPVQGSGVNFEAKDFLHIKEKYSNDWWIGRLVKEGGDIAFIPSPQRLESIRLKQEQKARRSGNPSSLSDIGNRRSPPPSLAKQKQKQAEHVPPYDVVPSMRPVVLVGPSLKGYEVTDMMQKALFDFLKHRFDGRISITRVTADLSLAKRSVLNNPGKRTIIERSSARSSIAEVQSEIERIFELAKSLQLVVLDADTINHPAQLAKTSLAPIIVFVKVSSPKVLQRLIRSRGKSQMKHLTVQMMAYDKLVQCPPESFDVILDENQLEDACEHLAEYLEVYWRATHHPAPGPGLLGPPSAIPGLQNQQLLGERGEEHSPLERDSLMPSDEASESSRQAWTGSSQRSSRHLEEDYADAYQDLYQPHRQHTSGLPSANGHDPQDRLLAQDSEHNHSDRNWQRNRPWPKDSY
In short: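 Differentiated IMR-32 cells (7–13 days) were loaded with 5 μM Indo-1 AM, preincubated with compound for 10 min at 30° C, and depolarized with KCl/CaCl2 stimulation solution, with 5 μM nitrendipine blocking L-channels. Peak-minus-basal 400/490 nm emission ratio was plotted against drug concentration, and IC50 came from four-parameter logistic fits.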

[3] = test system: Na+ channels in superior cervical ganglion (SCG) neurons; assay: Whole-cell voltage clamp, Na+ current in SCG neurons; assay type: cell-based, rat; settings: for IC50: read-out: Inhibition of Na+ Current IC50
Protocol: as §1, §2, §3
(§4) For Na^+ and K^+ channel currents, following the determination of the I/V relationship for each cell in control solution, currents were evoked from a holding potential between −65 and −55 mV by stepping every 10 sec to a test potential of either 0 mV for Na^+ or +50 mV for K^+ current for a duration of 35 msec. Peak inward current was measured for Na^+ and sustained current for K^+ channel currents. […] Test compounds were applied until steady-state block was achieved. Data were expressed as percent inhibition of control amplitudes for Na^+ and K^+ channel currents.

[4] = test system: K+ channels in superior cervical ganglion (SCG) neurons; assay: Whole-cell voltage clamp, K+ current in SCG neurons; assay type: cell-based, rat; settings: for IC50: read-out: Inhibition of K+ Current IC50
Protocol: as §1, §2, §3, §4

Structure (SMILES)	IC50 [2] [nM]	Inhibition of Na+ Current, % Inhibition at 10 μM [3] [%]	Inhibition of K+ Current, % Inhibition at 10 μM [4] [%]	inhibition at 10 µM [1] [%]	further results
CC(C)CC(NC(=O)N1CCCCCC1)C(=O)NC(Cc1ccc(OCc2ccccc2)cc1)C(=O)NC(C)C(C)C (stereo not shown) [Example 192, Azepane-1-carboxylic acid {1-[2-(4-benzyloxy-phenyl)-1-(1,2-dimethylpropylcarbamoyl)-ethylcarbamoyl]-3-methyl-butyl}-amide]	920	26	58	–	Inhibition of N-type Ca2+ Current, % Inhibition at 10 μM [1]: 58%; IC50 [1]: 2840 nM
CC(C)C[C@H](NC(=O)N1CCN(C)CC1)C(=O)N[C@@H](Cc1ccc(OCc2ccccc2)cc1)C(=O)OC(C)(C)C (relative stereo) [Example 9, [S-(R*,R*)]-3-(4-Benzyloxy-phenyl)-2-{4-methyl-2-[(4-methyl-piperazine-1-carbonyl)-amino]-pentanoylamino}-propionic acid tert-butyl ester]	–	44	61	–	Inhibition of N-type Ca2+ Current, % Inhibition at 10 μM [1]: 81%; Inhibition of Calcium Flux in IMR-32 Cells % Inhibition at 1 μM [2]: 28%
CC(C)CC(NC(=O)N1CCCCCC1)C(=O)NC(C)(Cc1ccc(OCc2ccccc2)cc1)C(=O)OC(C)(C)C (stereo not drawn) [Example 11A, [S-(R*,R*)]-2-{2-[(Azepane-1-carbonyl)-amino]-4-methyl-pentanoylamino}-3-(4-benzyloxy-phenyl)-2-methyl-propionic acid tert-butyl ester]	530	11	47	47	inhibition at 1 µM [2]: 61%; inhibition at 10 µM [2]: 88%
CC(C)C[C@H](NC(=O)N1CCCCCC1)C(=O)N[C@@H](Cc1ccc(OCc2ccccc2)cc1)C(=O)N1CCCCC1 [Example 167, [S-(R*,R*)]-Azepane-1-carboxylic acid {1-[1-(4-benzyloxy-benzyl)-2-oxo-2-piperidin-1-ylethylcarbamoyl]-3-methyl-butyl}-amide]	530	−2	8	4	inhibition at 1 µM [2]: 58%
CC(C)C[C@H](NC(=O)N1CCCCCC1)C(=O)N[C@@H](Cc1ccc(OCc2cccnc2)cc1)C(=O)OC(C)(C)C [Example 31, [S-(R*,R*)]-2-{2-[(Azepane-1-carbonyl)-amino]-4-methyl-pentanoylamino}-3-[4-(pyridin-3-ylmethoxy)-phenyl]-propionic acid tert-butyl ester]	1850	21	41	68	IC50 [1]: 3340 nM; inhibition at 1 µM [2]: 28%; inhibition at 10 µM [2]: 85%; IC50 [3]: 185000 nM; IC50 [4]: 12400 nM
CC(C)C[C@H](NC(=O)N1CCCCCC1)C(=O)N[C@@H](Cc1ccc(OCC2CCCCC2)cc1)C(=O)OC(C)(C)C [Example 30, [S-(R*,R*)]-2-{2-[(Azepane-1-carbonyl)-amino]-4-methyl-pentanoylamino}-3-(4-cyclohexylmethoxy-phenyl)-propionic acid tert-butyl ester]	630	19	8	38	inhibition at 1 µM [2]: 56%; inhibition at 10 µM [2]: 83%
CC(C)(C)NC(=O)[C@H](Cc1ccc(OCc2ccccc2)cc1)NC(=O)[C@@H]1CC2CCCCC2N1C(=O)N1CCCCCC1 (relative stereo) [Example 161, [S-(R*,R*)]-1-(Azepane-1-carbonyl)-octahydro-indole-2-carboxylic acid [2-(4-benzyloxy-phenyl)-1-tert-butylcarbamoyl-ethyl]-amide]	2500	42	68	–	Inhibition of N-type Ca2+ Current, % Inhibition at 10 μM [1]: 61%; IC50 [3]: 14000 nM; IC50 [4]: 5450 nM
CC(C)C[C@H](NS(=O)(=O)c1ccc([N+](=O)[O-])cc1)C(=O)N[C@@H](Cc1ccc(OCc2ccccc2)cc1)C(=O)OC(C)(C)C (relative stereo) [Example 39, [S-(R*,R*)]-3-(4-Benzyloxy-phenyl)-2-[4-methyl-2-(4-nitro-benzenesulfonylamino)-pentanoylamino]-propionic acid tert-butyl ester]	520	28	22	–	Inhibition of Calcium Flux in IMR-32 Cells % Inhibition at 1 μM [2]: 61%; Inhibition of Calcium Flux in IMR-32 Cells % Inhibition at 10 μM [2]: 91%
CC(C)C[C@H](NC(=O)c1ccccc1)C(=O)N[C@@H](Cc1ccc(OCc2ccccc2)cc1)C(=O)OC(C)(C)C (relative stereo) [Example 130, [S-(R*,R*)]-2-(2-Benzoylamino-4-methyl-pentanoylamino)-3-(4-benzyloxy-phenyl)-propionic acid tert-butyl ester]	–	–	–	–	Inhibition of N-type Ca2+ Current, % Inhibition at 10 μM [1]: −7%; Inhibition of Calcium Flux in IMR-32 Cells % Inhibition at 10 μM [2]: 78%
CC(C)C[C@H](NC(=O)N1CCCCCC1)C(=O)N[C@@H](Cc1ccc(OCc2ccccc2)cc1)C(=O)NCCc1ccco1 [Example 174, [S-(R*,R*)]-Azepane-1-carboxylic acid {1-[2-(4-benzyloxy-phenyl)-1-(2-furan-2-ylethylcarbamoyl)-ethylcarbamoyl]-3-methyl-butyl}-amide]	1400	14	32	–	–
CC(C)C[C@H](NC(=O)N1CCCCCC1)C(=O)N[C@@H](Cc1ccc(OCc2ccccc2)cc1)C(=O)N[C@H]1CCN(Cc2ccccc2)C1 [Example 194, Azepane-1-carboxylic acid {(S)-1-[(S)-2-(4-benzyloxy-phenyl)-1-[1-benzyl-(S)-pyrrolidin-3-ylcarbamoyl]-ethylcarbamoyl]-3-methyl-butyl}-amide]	450	–	–	84	–
CCCCNC(=O)N[C@@H](CC(C)C)C(=O)N[C@@H](Cc1ccc(OCc2ccccc2)cc1)C(=O)OC(C)(C)C (relative stereo) [Example 59, [S-(R*,R*)]-3-(4-Benzyloxy-phenyl)-2-[2-(3-butyl-ureido)-4-methyl-pentanoylamino]-propionic acid tert-butyl ester]	–	–	–	–	Inhibition of Calcium Flux in IMR-32 Cells % Inhibition at 1 μM [2]: 41%; Inhibition of Calcium Flux in IMR-32 Cells % Inhibition at 10 μM [2]: 61%
COc1ccc(N2CCN(C(=O)[C@H](Cc3ccc(OCc4ccccc4)cc3)NC(=O)[C@H](CC(C)C)NC(=O)N3CCCCCC3)CC2)cc1 [Example 264, [S-(R*,R*)]-Azepane-1-carboxylic acid (1-{1-(4-benzyloxy-benzyl)-2-[4-(4-methoxy-phenyl)-piperazin-1-yl]-2-oxo-ethylcarbamoyl}-3-methyl-butyl)-amide]	740	–	–	–	–
CC(C)C[C@H](NC(=O)N1CCCCCC1)C(=O)N[C@@H](Cc1ccc(C#Cc2ccccc2)cc1)C(=O)NC(C)(C)C (relative stereo) [Example 134, [S(R*,R*)]-Azepane-1-carboxylic acid {1-[1-tert-butylcarbamoyl-2-(4-phenylethynyl-phenyl)-ethylcarbamoyl]-3-methyl-butyl}-amide]	–	–	–	–	Inhibition of Calcium Flux in IMR-32 Cells % Inhibition at 1 μM [2]: 29%; Inhibition of Calcium Flux in IMR-32 Cells % Inhibition at 10 μM [2]: 56%
